Results as given in patent US20240269298A1, “PHOSPHONYL DERIVATIVE, AND COMPOSITION AND PHARMACEUTICAL APPLICATION THEREOF” (XIZANG HAISCO PHARMACEUTICAL CO., LTD., priority 2021, published 2024).
Where two headings read alike, the source gives them in different places.

What was measured:
[1] = system: NCI-H1975 (EGFR-L858R-T790M) cells; assay: Inhibitory activity on proliferation of NCI-H1975 (EGFR-L858R-T790M) cells (CTG, 72 h); type: cell-based; settings: Homo sapiens
Method in brief: (§1)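 Cells plated at 1000/well (NCI-H1975, RPMI1640+10% FBS) or 3000/well (A431, DMEM+10% FBS), dosed next day with compounds (0.1% DMSO final) for 72 h at 37 °C, 5% CO2. Viability by CTG luminescence, normalised to vehicle control; IC50 from nonlinear-regression dose-survival curves.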

A431 (EGFR-WT) cells = assay: Inhibitory activity on proliferation of A431 (EGFR-WT) cells (CTG, 72 h); type: cell-based; settings: Homo sapiens, A-431
Method in brief: as §1

[2] = system: Ba/F3-TEL-EGFR-T790M-L858R-C797S cells; assay: Inhibitory activity on proliferation of Ba/F3-TEL-EGFR-T790M-L858R-C797S cells (CellTiter-Glo, 72 h); type: cell-based
Description: Ba/F3-TEL-EGFR-T790M-L858R-C797S cells were cultured in an incubator at 37° C. with 5% CO2. The cells in the logarithmic phase were collected, counted and plated in a 96-well plate at a density of 2000 cells/well. The compounds at different concentrations were added, and a vehicle control group (cells plus DMSO) and a blank control group (cell culture mediums plus DMSO) were provided, wherein the concentration of DMSO was both 0.1%. The cell culture plate was cultured in an incubator at 37° C. with 5% CO2 for 72 hours. After the incubation was completed, the cell culture plate was removed and allowed to equilibrate to room temperature for 10 min. […] The plate was placed at room temperature for 10 min, and then […] signal values were measured using a microplate reader (SpectraMax Paradigm). […] The inhibition rates corresponding to different concentrations of compounds were calculated, and using the GraphPad Prism software, the inhibition rate curves were plotted, and IC50 values were calculated. wherein RLUDrug was the readout of the drug-treated group, RLUMax was the readout of the control group, and RLUMin was the readout of the blank group.

[3] = system: NCI-H1975 EGFR-L858R-T790M-C797S cells; assay: Inhibitory activity on proliferation of NCI-H1975 EGFR-L858R-T790M-C797S cells (CellTiter-Glo, 72 h); type: cell-based; settings: Homo sapiens
Method in brief: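 Cells (1500/well) exposed to graded compound concentrations for 72 h at 37 °C in hygromycin-free RPMI1640 + 10% FBS, 0.1% DMSO vehicle. Viability by CellTiter-Glo luminescence relative to vehicle; IC50 from nonlinear sigmoidal dose-survival fit.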

[4] = Pharmacokinetic test in mice; type: in vivo; settings: male, ICR, mouse, po, administration i.g. (10 mg/kg), plasma
Method in brief: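 Male ICR mice (20-25 g), fasted 12-14 h before dosing and fed 4 h after, received a single intravenous or intragastric dose. Orbital plasma sampled from 0 to 24 h (5 min-24 h points); LC-MS/MS quantitation for PK parameters and bioavailability.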

[5] = read-out: IC50 (value in brackets)

Row | IC50 ([1]; read-out: IC50 (class symbol)) | IC50 [1, 5] | IC50 (A431 (EGFR-WT) cells) | IC50 [2] | IC50 ([3]; read-out: IC50 (class symbol)) | IC50 ([3]; read-out: IC50 (value)) | AUC [4] | half-life [4] | Compound
1 | < 100 nM | 56 nM | ≥ 10000 nM | 15.6 nM | < 200 nM | 45 nM | 130 µg·h/mL | 13.9 h | COc1cc(N2CCC(CN3CCN(c4ccc5c(c4)C(=O)N(C4CCC(=O)NC4=O)C5=O)CC3)CC2)c(-c2cnn(C)c2)cc1Nc1ncc(Cl)c(Nc2ccc(C3CC3)cc2P(C)(C)=O)n1 (stereo not shown) [Compound 107, 5-(4-((1-(4-((5-chloro-4-((4-cyclopropyl-2-(dimethylphosphoryl)phenyl)amino)pyrimidin-2-yl)amino)-5-methoxy-2-(1-methyl-1H-pyrazol-4-yl)phenyl)piperidin-4-yl)methyl)piperazin-1-yl)-2-(2,6-dioxopiperidin-3-yl)isoindoline-1,3-dione]
2 | < 100 nM | 54 nM | ≥ 10000 nM | 15.6 nM | < 200 nM | 112 nM | 145 µg·h/mL | 18 h | COc1cc(N2CCC(CN3CCN(c4ccc5c(c4)C(=O)N(C4CCC(=O)NC4=O)C5=O)CC3)CC2)c(-c2cnn(C)c2)cc1Nc1ncc(Br)c(Nc2ccc(C3CC3)cc2P(C)(C)=O)n1 (stereo not shown) [Compound 106, 5-(4-((1-(4-((5-bromo-4-((4-cyclopropyl-2-(dimethylphosphoryl)phenyl)amino)pyrimidin-2-yl)amino)-5-methoxy-2-(1-methyl-1H-pyrazol-4-yl)phenyl)piperidin-4-yl)methyl)piperazin-1-yl)-2-(2,6-dioxopiperidin-3-yl)isoindoline-1,3-dione]
